# Source: patent US20250170248A1, “SMARCA DEGRADERS AND USES THEREOF” (Kymera Therapeutics, Inc., priority 2021, published 2025)
# Legend:
# Format in all cases: cell-based
# [1] = biological target: T1, SMARCA2 (Homo sapiens, UniProt P51531); assay: MSD SMARCA2 degradation in A549 cell line; settings: for Dmax: A549, A549 cells; for Dmax / DC50: 24 h; for DC50: read-out: SMARCA2 MSD A549 degradation 24 h: Average external-Abs DC50
# How it was run: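 A549 cells treated 24 h with compound, 3-fold series from 1000 nM. Lysates captured on MSD plates and SMARCA2 quantified with anti-SMARCA2 and SULFO-TAG secondary antibodies (electrochemiluminescence). DC50 and Dmax (% degradation at 24 h) reported as letter bins.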
# [2] = biological target: T2, SMARCA4 (Homo sapiens, UniProt P51532); assay: SMARCA4 Western blot degradation in MV4-11 cells; settings: for Dmax: MV4-11, MV4-11 cells, read-out: SMARCA4 MSD MV411 degradation 24 h: average Dmax %; for Dmax / DC50: 24 h; for DC50: read-out: SMARCA4 MSD MV411 degradation 24 h: Mean external-Abs DC50
# T2 construct: SMARCA2/SMARCA4 protein degradation selectivity in MV4-11 cells; endogenous in cells; host or cells: MV4-11
# How it was run: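 24 h compound exposure, MV4-11; RIPA lysates → SDS-PAGE → NC membrane; anti-SMARCA2/BRM, anti-BRG1, β-actin loading control; LI-COR fluorescence read. DC50 and Dmax at 24 h reported as letter bins.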
# [3] = biological target: T1, SMARCA2; assay: SMARCA2 Western blot degradation in MV4-11 cells; parameters: SMARCA2/SMARCA4 protein degradation selectivity in MV4-11 cells; endogenous in cells; host or cells: MV4-11; settings: for Dmax: MV4-11, MV4-11 cells, read-out: SMARCA2 MSD MV411 degradation 24 h: average Dmax %; for DC50: read-out: SMARCA2 MSD MV411 degradation 24 h: Mean external-Abs DC50; for Selectivity in MV411: SMARCA2/4 selectivity
# T2 sequence (P51532 whole entry): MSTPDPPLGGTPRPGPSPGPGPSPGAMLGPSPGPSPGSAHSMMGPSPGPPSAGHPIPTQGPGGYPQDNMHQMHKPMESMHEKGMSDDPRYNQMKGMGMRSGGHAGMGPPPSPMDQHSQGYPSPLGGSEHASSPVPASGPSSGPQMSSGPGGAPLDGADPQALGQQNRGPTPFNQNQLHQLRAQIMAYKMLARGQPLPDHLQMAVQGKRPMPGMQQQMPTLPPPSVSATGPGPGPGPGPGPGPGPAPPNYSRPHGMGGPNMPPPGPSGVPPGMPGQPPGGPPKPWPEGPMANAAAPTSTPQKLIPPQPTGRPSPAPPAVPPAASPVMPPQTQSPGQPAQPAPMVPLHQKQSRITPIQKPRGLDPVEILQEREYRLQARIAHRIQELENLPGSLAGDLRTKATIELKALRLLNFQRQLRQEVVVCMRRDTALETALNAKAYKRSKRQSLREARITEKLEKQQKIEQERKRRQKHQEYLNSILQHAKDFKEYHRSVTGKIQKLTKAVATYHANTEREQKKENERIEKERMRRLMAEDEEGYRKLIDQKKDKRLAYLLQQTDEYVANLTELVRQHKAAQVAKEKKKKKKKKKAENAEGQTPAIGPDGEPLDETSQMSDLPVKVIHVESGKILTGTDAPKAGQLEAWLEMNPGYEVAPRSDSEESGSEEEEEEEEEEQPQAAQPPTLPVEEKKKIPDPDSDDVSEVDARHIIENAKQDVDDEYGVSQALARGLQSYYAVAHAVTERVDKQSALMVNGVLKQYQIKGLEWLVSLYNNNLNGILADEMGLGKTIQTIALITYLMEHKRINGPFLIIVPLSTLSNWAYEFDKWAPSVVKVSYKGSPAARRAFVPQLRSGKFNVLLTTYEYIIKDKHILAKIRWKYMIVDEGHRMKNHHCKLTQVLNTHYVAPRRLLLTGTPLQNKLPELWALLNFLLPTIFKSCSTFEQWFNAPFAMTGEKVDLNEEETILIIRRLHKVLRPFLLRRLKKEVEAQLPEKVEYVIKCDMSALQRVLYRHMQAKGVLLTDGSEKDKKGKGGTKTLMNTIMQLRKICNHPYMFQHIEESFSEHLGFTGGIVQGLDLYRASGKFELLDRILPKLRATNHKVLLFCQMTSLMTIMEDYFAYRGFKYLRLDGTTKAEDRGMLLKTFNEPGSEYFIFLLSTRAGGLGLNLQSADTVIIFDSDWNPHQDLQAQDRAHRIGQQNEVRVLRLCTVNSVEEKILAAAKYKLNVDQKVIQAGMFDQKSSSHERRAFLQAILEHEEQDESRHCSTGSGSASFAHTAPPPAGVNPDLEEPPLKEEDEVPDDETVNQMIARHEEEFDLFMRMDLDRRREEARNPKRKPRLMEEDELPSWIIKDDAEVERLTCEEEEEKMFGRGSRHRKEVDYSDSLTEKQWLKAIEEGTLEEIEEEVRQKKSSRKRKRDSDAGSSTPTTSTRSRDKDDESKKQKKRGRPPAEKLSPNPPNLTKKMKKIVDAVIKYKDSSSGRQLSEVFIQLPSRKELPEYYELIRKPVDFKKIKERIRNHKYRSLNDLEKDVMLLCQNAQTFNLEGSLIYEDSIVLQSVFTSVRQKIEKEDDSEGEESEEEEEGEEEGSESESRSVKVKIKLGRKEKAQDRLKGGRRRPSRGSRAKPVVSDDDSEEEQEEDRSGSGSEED
# T1 sequence (P51531 whole entry): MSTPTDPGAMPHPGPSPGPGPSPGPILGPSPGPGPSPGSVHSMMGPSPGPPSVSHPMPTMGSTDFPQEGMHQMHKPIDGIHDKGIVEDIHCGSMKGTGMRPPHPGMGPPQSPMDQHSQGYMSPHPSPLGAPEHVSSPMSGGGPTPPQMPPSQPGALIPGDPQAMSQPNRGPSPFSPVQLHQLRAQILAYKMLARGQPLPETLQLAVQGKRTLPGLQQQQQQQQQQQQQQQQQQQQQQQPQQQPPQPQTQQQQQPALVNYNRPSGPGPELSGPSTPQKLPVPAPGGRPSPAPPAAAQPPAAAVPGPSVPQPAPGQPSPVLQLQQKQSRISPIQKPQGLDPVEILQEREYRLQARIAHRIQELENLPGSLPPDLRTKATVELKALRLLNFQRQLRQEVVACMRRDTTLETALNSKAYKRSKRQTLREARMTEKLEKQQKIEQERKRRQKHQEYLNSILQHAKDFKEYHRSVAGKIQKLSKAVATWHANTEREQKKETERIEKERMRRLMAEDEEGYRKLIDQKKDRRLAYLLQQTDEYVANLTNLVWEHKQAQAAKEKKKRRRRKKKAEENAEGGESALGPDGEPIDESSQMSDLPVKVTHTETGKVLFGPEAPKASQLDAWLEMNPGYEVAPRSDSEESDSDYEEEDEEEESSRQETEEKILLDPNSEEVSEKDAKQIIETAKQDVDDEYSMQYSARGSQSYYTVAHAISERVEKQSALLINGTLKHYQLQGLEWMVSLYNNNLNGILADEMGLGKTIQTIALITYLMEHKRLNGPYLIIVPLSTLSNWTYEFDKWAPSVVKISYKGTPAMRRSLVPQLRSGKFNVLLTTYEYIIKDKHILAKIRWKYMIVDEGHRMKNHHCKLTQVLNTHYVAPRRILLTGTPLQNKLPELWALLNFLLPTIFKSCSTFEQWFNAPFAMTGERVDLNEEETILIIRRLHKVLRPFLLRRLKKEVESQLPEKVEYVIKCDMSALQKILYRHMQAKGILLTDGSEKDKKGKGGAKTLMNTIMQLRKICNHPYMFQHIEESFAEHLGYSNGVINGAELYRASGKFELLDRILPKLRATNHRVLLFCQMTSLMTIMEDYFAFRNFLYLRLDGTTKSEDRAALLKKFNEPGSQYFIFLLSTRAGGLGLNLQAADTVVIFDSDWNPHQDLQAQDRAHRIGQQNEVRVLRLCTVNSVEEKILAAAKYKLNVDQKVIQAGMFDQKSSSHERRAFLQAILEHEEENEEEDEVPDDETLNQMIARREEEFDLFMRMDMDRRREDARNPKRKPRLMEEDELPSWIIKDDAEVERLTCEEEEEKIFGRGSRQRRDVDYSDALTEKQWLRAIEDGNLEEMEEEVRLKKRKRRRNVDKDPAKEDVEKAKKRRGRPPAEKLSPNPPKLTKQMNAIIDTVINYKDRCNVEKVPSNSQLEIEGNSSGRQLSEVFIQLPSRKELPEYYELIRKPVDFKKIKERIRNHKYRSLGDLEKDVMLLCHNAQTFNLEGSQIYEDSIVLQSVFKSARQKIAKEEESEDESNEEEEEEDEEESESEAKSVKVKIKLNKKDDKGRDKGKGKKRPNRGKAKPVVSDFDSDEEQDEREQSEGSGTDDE
Structure (SMILES),Dmax [1],DC50 ([1]; A549 cells),Dmax [2],DC50 ([2]; MV4-11 cells),Dmax ([3]; 24 h),"DC50 ([3]; MV4-11 cells, 24 h)",Selectivity in MV411 ([3]; MV4-11 cells),SMARCA2 MSD A549 degradation 24 h: Average Dmax % ([1]; A549 cells),SMARCA4 MSD MV411 degradation 24 h: average Dmax % ([2]; MV4-11 cells),"SMARCA2 MSD MV411 degradation 24 h: average Dmax % ([3]; MV4-11 cells, 24 h)"
"Cc1ncsc1-c1ccc(CNC(=O)[C@@H]2C[C@@H](O)CN2C(=O)C(c2cc(OCCCN3CCC(c4cnc(N5CCN6c7cc(-c8ccccc8O)nnc7NCC6C5)nc4)CC3)no2)C(C)C)cc1 (stereo in doubt) [I-52, (2S,4R)-4-hydroxy-1-(2-(3-(3-(4-(2-((S)-2-(2-hydroxyphenyl)-6a,7,9,10-tetrahydro-5H-pyrazino[1′,2′:4,5]pyrazino[2,3-c]pyridazin-8(6H)-yl)pyrimidin-5-yl)piperidin-1-yl)propoxy)isoxazol-5-yl)-3-methylbutanoyl)-N-(4-(4-methylthiazol-5-yl)benzyl)pyrrolidine-2-carboxamide]",> 90%,0.01 to 0.05 µM,> 90%,0.001 to 0.01 µM,> 90%,< 0.001 µM,D (D (<10 fold)),,,
C#Cc1ccc(CNC(=O)[C@@H]2C[C@@H](O)CN2C(=O)[C@@H](NC(=O)c2ccc(N3CCC(N4CCC(N5CCN6c7cc(-c8ccccc8O)nnc7NC[C@H]6C5)CC4)CC3)cn2)C(C)(C)C)cc1 [I-292],> 90%,< 0.01 µM,> 90%,0.01 to 0.1 µM,> 90%,0.001 to 0.01 µM,C (C (10-100 fold)),,,
C#Cc1ccc(CNC(=O)[C@@H]2C[C@@H](O)CN2C(=O)[C@@H](NC(=O)N2CC3(CC(N4CCC(c5cnc(N6CCN7c8cc(-c9ccccc9O)nnc8NC[C@H]7C6)nc5)CC4)C3)C2)C(C)(C)C)cc1 [I-111],> 90%,< 0.01 µM,> 90%,0.01 to 0.1 µM,> 90%,< 0.001 µM,C (C (10-100 fold)),,,
CC#Cc1ccc(CNC(=O)[C@@H]2C[C@@H](O)CN2C(=O)[C@@H](NC(=O)N2CC3(CC(N4CCC(c5cnc(N6CCc7[nH]c8nnc(-c9ccccc9O)cc8c7[C@H]6C)nc5)CC4)C3)C2)C(C)(C)C)cc1 [I-121],> 90%,0.05 to 0.1 µM,< 50%,> 0.1 µM,50 to 70%,0.01 to 0.1 µM,B (B (>100-500 fold)),,,
C#Cc1ccc([C@H](CO)NC(=O)[C@@H]2C[C@@H](O)CN2C(=O)[C@@H](NC(=O)N2CC3(CC(N4CCC(c5cnc(N6CCc7[nH]c8nnc(-c9ccccc9O)cc8c7[C@H]6C)nc5)CC4)C3)C2)C(C)(C)C)cc1 [I-168],> 90%,< 0.01 µM,> 90%,< 0.001 µM,> 90%,< 0.001 µM,C (C (10-100 fold)),,,
"Cc1ncsc1-c1ccc(CNC(=O)[C@@H]2C[C@@H](O)CN2C(=O)C(c2cc(OCCN3CCC(N4CCC(c5cnc(N6CCc7[nH]c8nnc(-c9ccccc9O)cc8c7[C@@H]6C)nc5)CC4)CC3)no2)C(C)C)cc1 (single isomer, unassigned) [I-41]",70 to 90%,0.05 to 0.1 µM,> 90%,0.01 to 0.1 µM,> 90%,< 0.001 µM,D (D (<10 fold)),,,
C#Cc1ccc(CNC(=O)[C@@H]2C[C@@H](O)CN2C(=O)[C@@H](NC(=O)N2CCN(C[C@H]3CC[C@@H](N4CCC(N5CCc6[nH]c7nnc(-c8ccccc8O)cc7c6[C@H]5C)CC4)CC3)CC2)C(C)(C)C)cc1 [I-193],70 to 90%,> 0.1 µM,< 50%,> 0.1 µM,< 50%,> 0.1 µM,C (C (10-100 fold)),,,
COc1cc(C(C(=O)N2C[C@H](O)C[C@H]2C(=O)NCC#Cc2ccccc2OCCCCN2CCC(c3cnc(N4CCN5c6cc(-c7ccccc7O)nnc6NC[C@H]5C4)nc3)CC2)C(C)C)on1 (stereo partly drawn) [I-74],> 90%,0.01 to 0.05 µM,> 90%,0.001 to 0.01 µM,> 90%,< 0.001 µM,C (C (10-100 fold)),,,
"C#Cc1ccc(CNC(=O)[C@@H]2C[C@@H](O)CN2C(=O)[C@@H](NC(=O)[C@H]2CCC3(CC2)C[C@H](N2CCN(c4cnc(N5CCN6c7cc(-c8ccccc8O)nnc7NC[C@H]6C5)nc4)CC2)C3)C(C)(C)CCO)c(Cl)c1 (single isomer, unassigned) [I-312]",,0.01 to 0.05 µM,,> 0.1 µM,,0.01 to 0.1 µM,B (B (>100-500 fold)),A (A (>90% degradation)),D (D (<50% degradation)),B (B (>70-90% degradation))
C#Cc1ccc(CNC(=O)[C@@H]2C[C@@H](O)CN2C(=O)[C@@H](NC(=O)N2CC3(CN(CC4CCN(c5cnc(N6CCc7[nH]c8nnc(-c9ccccc9O)cc8c7[C@@H]6C)nc5)CC4)C3)C2)C(C)(C)C)cc1 [I-165],> 90%,> 0.1 µM,70 to 90%,> 0.1 µM,70 to 90%,0.01 to 0.1 µM,D (D (<10 fold)),,,
C#Cc1cc(Cl)c(CNC(=O)[C@@H]2C[C@@H](O)CN2C(=O)[C@@H](NC(=O)[C@H]2CC3(C2)C[C@H](N2CCC(N4CCC(N5CCN6c7cc(-c8ccccc8O)nnc7NC[C@H]6C5)CC4)CC2)C3)C(C)(C)C)c(OC)c1 (stereo partly drawn) [I-329],,> 0.1 µM,,> 0.1 µM,,,D (D (<10 fold)),,,
"C#Cc1ccc(CNC(=O)[C@@H]2C[C@@H](O)CN2C(=O)[C@@H](NC(=O)[C@H]2CCC3(CC2)C[C@H](N2CCC(c4cnc(N5CCN6c7cc(-c8ccccc8O)nnc7NC[C@H]6C5)nc4)CC2)C3)C(C)(C)CCO)cc1 (single isomer, unassigned) [I-131]",> 90%,0.01 to 0.05 µM,50 to 70%,0.01 to 0.1 µM,> 90%,< 0.001 µM,C (C (10-100 fold)),,,
"C#Cc1ccc(CNC(=O)[C@@H]2C[C@@H](O)CN2C(=O)[C@@H](NC(=O)C2CCC3(CC2)CC(N2CCC(N4CCC[C@@H](C(=O)N5CCN6c7cc(-c8ccccc8O)nnc7NC[C@H]6C5)C4)CC2)C3)C(C)(C)C)cc1 (single isomer, unassigned) [I-91]",> 90%,> 0.1 µM,< 50%,> 0.1 µM,70 to 90%,0.001 to 0.01 µM,A (A (>500 fold)),,,
C#Cc1ccc(CNC(=O)[C@@H]2C[C@@H](O)CN2C(=O)[C@@H](NC(=O)N2CC3(CC(CN4CCC(N5CCC(N6CCc7[nH]c8nnc(-c9ccccc9O)cc8c7[C@H]6C)CC5)CC4)C3)C2)C(C)(C)C)cc1 [I-190],> 90%,> 0.1 µM,50 to 70%,> 0.1 µM,50 to 70%,0.01 to 0.1 µM,C (C (10-100 fold)),,,
"C#Cc1ccc(CNC(=O)[C@@H]2C[C@@H](O)CN2C(=O)[C@@H](NC(=O)[C@H]2CC3(C2)C[C@H](c2cnc(N4CCC(N5CCN6c7cc(-c8ccccc8O)nnc7NC[C@H]6C5)CC4)nc2)C3)C(C)(C)C)cc1 (single isomer, unassigned) [I-301]",> 90%,0.01 to 0.05 µM,> 90%,0.01 to 0.1 µM,> 90%,0.001 to 0.01 µM,C (C (10-100 fold)),,,
C#Cc1ccc([C@@H](C)NC(=O)[C@@H]2C[C@@H](O)CN2C(=O)C(c2cc(N3CCC(CN4CCC(N5CCC(N6CCN7c8cc(-c9ccccc9O)nnc8NC[C@H]7C6)CC5)CC4)CC3)no2)C(C)C)c(Cl)c1 (stereo partly drawn) [I-327],> 90%,0.05 to 0.1 µM,70 to 90%,> 0.1 µM,70 to 90%,0.01 to 0.1 µM,C (C (10-100 fold)),,,
